Assay results taken from patent US20100035857A1, “ANTI-HYPERCHOLESTEROLEMIC COMPOUNDS” (priority 2006, published 2010).

System: cholesterol absorption
Assay: Cholesterol Absorption Assay in Rats
Assay type: in vivo
Settings: CD male rats, oral, at the highest dose tested; [3H]-cholesterol counts in liver and plasma
Description: Compounds can be tested for cholesterol absorption activity in assays using, e.g., rats or mice, and are preferably tested in the rat assay described herein. Representative compounds of this invention were determined to inhibit cholesterol absorption employing the Cholesterol Absorption Assay in Rats, below. This assay involves comparing a test compound to ezetimibe with respect to their ability to inhibit cholesterol absorption in rats.
Cholesterol Absorption Assay in Rats: CD male rats (n=5/group), aged 5 weeks, were dosed orally with 0.5 ml 0.25% methyl cellulose solution with or without test compound or ezetimibe (0.0003 to 1 mg/kg). 0.5 to 16 hrs later all of the rats were dosed orally with 0.5 ml […]® containing 5 μCi [^3H]-cholesterol per rat. Five hours later, the animals were euthanized, and liver and blood were collected. Cholesterol counts in liver and plasma were determined, and percent inhibition of cholesterol absorption was calculated.

## O=C1[C@H](CC[C@H](O)c2ccc(F)cc2)[C@@H](c2ccc(O)cc2)N1c1ccc(F)cc1 [ezetimibe, Ezetimibe]
  inhibition of cholesterol absorption: > 75%
